Data: ChEMBL document CHEMBL1201862, “PubChem BioAssay data set” (2004)
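Each compound was tested at five concentrations against cells in 96-well plates for 48 hours. Abbreviation: GI50, concentration required for 50% inhibition of growth.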 The source made the active and inactive calls. No stated cut-off is given here; in the data, active = GI50 up to about 1.1 µM and inactive = higher.

Key:
Assay in all cases: growth of human tumour cells (NCI), 48 h
[1] = test system: 786-0
[2] = test system: A549
[3] = test system: ACHN
[4] = test system: CAKI-1
[5] = test system: CCRF-CEM
[6] = test system: COLO 205
[7] = test system: DLD-1
[8] = test system: DMS-114
[9] = test system: DMS-273
[10] = test system: EKVX
[11] = test system: HCC 2998
[12] = test system: HCT-116
[13] = test system: HCT-15
[14] = test system: HL-60
[15] = test system: HOP-62
[16] = test system: HOP-92
[17] = test system: HT-29
[18] = test system: IGROV-1
[19] = test system: K562
[20] = test system: KM-20L2
[21] = test system: KM12
[22] = test system: LOX IMVI
[23] = test system: LXFL 529
[24] = test system: M14
[25] = test system: M19-MEL
[26] = test system: MOLT-4
[27] = test system: Malme-3M
[28] = test system: NCI-H226
[29] = test system: NCI-H23
[30] = test system: NCI-H460
[31] = test system: NCI-H522
[32] = test system: OVCAR-3
[33] = test system: OVCAR-4
[34] = test system: OVCAR-5
[35] = test system: OVCAR-8
[36] = test system: RPMI-8226
[37] = test system: RXF 393
[38] = test system: SF-268
[39] = test system: SF-295
[40] = test system: SF-539
[41] = test system: SK-MEL-28
[42] = test system: SK-MEL-2
[43] = test system: SK-MEL-5
[44] = test system: SK-OV-3
[45] = test system: SN12C
[46] = test system: SNB-19
[47] = test system: SNB-75
[48] = test system: SNB-78
[49] = test system: SR
[50] = test system: SW-620
[51] = test system: TK-10
[52] = test system: U-251
[53] = test system: UACC-62
[54] = test system: UO-31
[55] = test system: XF498
[56] = test system: A498
[57] = test system: UACC-257

## CCC(=C(c1ccc(OCc2ccccc2)cc1)c1ccc(OCc2ccccc2)cc1)c1ccc(OC)cc1
[1]
  GI50: > 100 µM (inactive)
[2]
  GI50: > 100 µM (inactive)
[3]
  GI50: > 100 µM (inactive)
[4]
  GI50: > 100 µM (inactive)
[5]
  GI50: > 100 µM (inactive)
[6]
  GI50: > 100 µM (inactive)
[7]
  GI50: > 100 µM (inactive)
[8]
  GI50: > 100 µM (inactive)
[9]
  GI50: > 100 µM (inactive)
[10]
  GI50: > 100 µM (inactive)
[11]
  GI50: > 100 µM (inactive)
[12]
  GI50: > 100 µM (inactive)
[13]
  GI50: > 100 µM
[14]
  GI50: > 100 µM (inactive)
[15]
  GI50: > 100 µM (inactive)
[16]
  GI50: > 100 µM (inactive)
[17]
  GI50: > 100 µM (inactive)
[18]
  GI50: > 100 µM (inactive)
[19]
  GI50: > 100 µM (inactive)
[20]
  GI50: > 100 µM (inactive)
[21]
  GI50: > 100 µM (inactive)
[22]
  GI50: > 100 µM (inactive)
[23]
  GI50: > 100 µM (inactive)
[24]
  GI50: > 100 µM (inactive)
[25]
  GI50: > 100 µM (inactive)
[26]
  GI50: > 100 µM (inactive)
[27]
  GI50: > 100 µM (inactive)
[28]
  GI50: > 100 µM (inactive)
[29]
  GI50: > 100 µM (inactive)
[30]
  GI50: > 100 µM (inactive)
[31]
  GI50: > 100 µM (inactive)
[32]
  GI50: > 100 µM (inactive)
[33]
  GI50: > 100 µM (inactive)
[34]
  GI50: > 100 µM (inactive)
[35]
  GI50: > 100 µM (inactive)
[36]
  GI50: > 100 µM (inactive)
[37]
  GI50: > 100 µM (inactive)
[38]
  GI50: > 100 µM (inactive)
[39]
  GI50: > 100 µM (inactive)
[40]
  GI50: > 100 µM (inactive)
[41]
  GI50: > 100 µM (inactive)
[42]
  GI50: > 100 µM (inactive)
[43]
  GI50: > 100 µM (inactive)
[44]
  GI50: > 100 µM (inactive)
[45]
  GI50: > 100 µM (inactive)
[46]
  GI50: > 100 µM (inactive)
[47]
  GI50: > 100 µM (inactive)
[48]
  GI50: > 100 µM (inactive)
[49]
  GI50: > 100 µM (inactive)
[50]
  GI50: > 100 µM (inactive)
[51]
  GI50: > 100 µM (inactive)
[52]
  GI50: > 100 µM (inactive)
[53]
  GI50: > 100 µM (inactive)
[54]
  GI50: > 100 µM (inactive)
[55]
  GI50: > 100 µM (inactive)

## Cc1cc(-c2ccc(/N=N/c3ccc4c(S(=O)(=O)O)cc(S(=O)(=O)O)c(N)c4c3O)c(C)c2)ccc1/N=N/c1ccc2c(S(=O)(=O)O)cc(S(=O)(=O)O)c(N)c2c1O
[5]
  GI50: > 100 µM (inactive)
[6]
  GI50: > 100 µM (inactive)
[7]
  GI50: > 100 µM (inactive)
[8]
  GI50: > 100 µM (inactive)
[12]
  GI50: > 100 µM (inactive)
[15]
  GI50: > 100 µM (inactive)
[16]
  GI50: > 100 µM (inactive)
[18]
  GI50: > 100 µM (inactive)
[21]
  GI50: > 100 µM (inactive)
[22]
  GI50: > 100 µM (inactive)
[26]
  GI50: > 100 µM (inactive)
[27]
  GI50: > 100 µM (inactive)
[33]
  GI50: > 63.4 µM (inactive)
[36]
  GI50: > 100 µM (inactive)
[43]
  GI50: > 100 µM (inactive)
[46]
  GI50: > 100 µM (inactive)
[47]
  GI50: > 100 µM (inactive)
[48]
  GI50: > 100 µM (inactive)
[53]
  GI50: > 100 µM (inactive)
[55]
  GI50: > 100 µM (inactive)

## Cc1cc2c(=O)c3ccccc3[nH]c2c(C(=O)O)c1C
[1]
  GI50: > 100 µM (inactive)
[56]
  GI50: > 100 µM (inactive)
[2]
  GI50: > 100 µM (inactive)
[3]
  GI50: > 100 µM (inactive)
[4]
  GI50: > 100 µM (inactive)
[5]
  GI50: > 100 µM (inactive)
[6]
  GI50: > 100 µM (inactive)
[7]
  GI50: > 100 µM (inactive)
[8]
  GI50: > 100 µM (inactive)
[9]
  GI50: > 100 µM (inactive)
[10]
  GI50: 66.5 µM (inactive)
[11]
  GI50: > 100 µM (inactive)
[12]
  GI50: 76 µM (inactive)
[13]
  GI50: > 100 µM
[14]
  GI50: 70.8 µM (inactive)
[15]
  GI50: > 100 µM (inactive)
[16]
  GI50: < 0.01 µM (active)
[17]
  GI50: > 100 µM (inactive)
[18]
  GI50: > 100 µM (inactive)
[19]
  GI50: > 100 µM (inactive)
[20]
  GI50: > 100 µM (inactive)
[21]
  GI50: > 100 µM (inactive)
[23]
  GI50: > 100 µM (inactive)
[25]
  GI50: > 100 µM (inactive)
[26]
  GI50: > 100 µM (inactive)
[29]
  GI50: > 100 µM (inactive)
[30]
  GI50: > 100 µM (inactive)
[32]
  GI50: > 100 µM (inactive)
[33]
  GI50: > 100 µM (inactive)
[35]
  GI50: > 100 µM (inactive)
[36]
  GI50: > 100 µM (inactive)
[37]
  GI50: 67.1 µM (inactive)
[39]
  GI50: > 100 µM (inactive)
[40]
  GI50: > 100 µM (inactive)
[41]
  GI50: > 100 µM (inactive)
[42]
  GI50: > 100 µM (inactive)
[45]
  GI50: > 100 µM (inactive)
[46]
  GI50: > 100 µM (inactive)
[47]
  GI50: 31.6 µM (inactive)
[48]
  GI50: 36.6 µM (inactive)
[49]
  GI50: > 100 µM (inactive)
[50]
  GI50: > 100 µM (inactive)
[52]
  GI50: > 100 µM (inactive)
[57]
  GI50: > 100 µM (inactive)
[53]
  GI50: > 100 µM (inactive)
[54]
  GI50: 43.9 µM (inactive)
[55]
  GI50: > 100 µM (inactive)
